melting point: 267 to 272 °C
Compound: c1ccc2c(Nc3ccc4[nH]ncc4c3)nc(-c3ccc4c(c3)CCO4)nc2c1 [Example 9, 2-(2,3-dihydro-1-benzofuran-5-yl)-N-(1H-indazol-5-yl)-4-quinazolinamine]

Reference: patent US7645878B2, “Process for preparing quinazoline Rho-kinase inhibitors and intermediates thereof” (Bayer Healthcare LLC, priority 2002, dated 2010)
